Results as given in the supplement of paper PMC10307832.

Legend:
Experiment in all cases: relative viability (nuclei count vs DMSO), 5 days (fraction); higher = more cells survive
Midostaurin + AZD7762 = compound: CO[C@@H]1[C@H](N(C)C(=O)c2ccccc2)C[C@H]2O[C@]1(C)n1c3ccccc3c3c4c(c5c6ccccc6n2c5c31)C(=O)NC4 [Midostaurin] + NC(=O)Nc1cc(-c2cccc(F)c2)sc1C(=O)N[C@H]1CCCNC1 [AZD7762] (partner 0.2 µM)
How it was run: (§1)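 Nuclei were stained with Hoechst during a one-step fixation (final 0.05% Triton X-100, 1% formaldehyde, 1 ug/ml Hoechst) carried out 5 days after dosing, then counted on 4× images. The cells, lung cancer lines in 1536-well plates, had been dosed by pin tool the day after seeding with one drug alone or a fixed anchor-drug dose plus five library-drug doses (not always all listed) in √10 steps. Relative viability is the nuclei count in treated wells divided by that in vehicle wells, and each value is the median of duplicate plates.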

Midostaurin + Bortezomib = compound: CO[C@@H]1[C@H](N(C)C(=O)c2ccccc2)C[C@H]2O[C@]1(C)n1c3ccccc3c3c4c(c5c6ccccc6n2c5c31)C(=O)NC4 [Midostaurin] + CC(C)C[C@H](NC(=O)[C@H](Cc1ccccc1)NC(=O)c1cnccn1)B(O)O [Bortezomib] (partner 0.002 µM)
How it was run: as §1

Midostaurin + Luminespib = compound: CO[C@@H]1[C@H](N(C)C(=O)c2ccccc2)C[C@H]2O[C@]1(C)n1c3ccccc3c3c4c(c5c6ccccc6n2c5c31)C(=O)NC4 [Midostaurin] + CCNC(=O)c1noc(-c2cc(C(C)C)c(O)cc2O)c1-c1ccc(CN2CCOCC2)cc1 [Luminespib] (partner 0.01 µM)
How it was run: as §1

Midostaurin + Vorinostat = compound: CO[C@@H]1[C@H](N(C)C(=O)c2ccccc2)C[C@H]2O[C@]1(C)n1c3ccccc3c3c4c(c5c6ccccc6n2c5c31)C(=O)NC4 [Midostaurin] + O=C(CCCCCCC(=O)Nc1ccccc1)NO [Vorinostat] (partner 1 µM)
How it was run: as §1

[1] = compound: COc1cc(-c2nn([C@H]3CC[C@H](N4CCN(C(C)=O)CC4)CC3)c3ncnc(N)c23)ccc1NC(=O)c1cc2ccccc2n1C + NC(=O)Nc1cc(-c2cccc(F)c2)sc1C(=O)N[C@H]1CCCNC1 [AZD7762] (partner 0.2 µM)
How it was run: as §1

LXF-289
relative viability (Midostaurin + AZD7762; first compound 0.01 µM): 1.14
relative viability (Midostaurin + AZD7762; first compound 0.03162 µM): 1.13
relative viability (Midostaurin + AZD7762; first compound 0.1 µM): 1.07
relative viability (Midostaurin + AZD7762; first compound 0.3162 µM): 1.09
relative viability (Midostaurin + Bortezomib; first compound 0.01 µM): 0.997
relative viability (Midostaurin + Bortezomib; first compound 0.03162 µM): 0.97
relative viability (Midostaurin + Bortezomib; first compound 0.1 µM): 0.967
relative viability (Midostaurin + Bortezomib; first compound 0.3162 µM): 0.974
relative viability (Midostaurin + Luminespib; first compound 0.01 µM): 0.692
relative viability (Midostaurin + Luminespib; first compound 0.03162 µM): 0.706
relative viability (Midostaurin + Luminespib; first compound 0.1 µM): 0.482
relative viability (Midostaurin + Luminespib; first compound 0.3162 µM): 0.596
relative viability (Midostaurin + Vorinostat; first compound 0.01 µM): 0.772
relative viability (Midostaurin + Vorinostat; first compound 0.03162 µM): 0.734
relative viability (Midostaurin + Vorinostat; first compound 0.1 µM): 0.756
relative viability (Midostaurin + Vorinostat; first compound 0.3162 µM): 0.689
relative viability ([1]; first compound 0.0128 µM): 1.29
relative viability ([1]; first compound 0.04048 µM): 0.964
relative viability ([1]; first compound 0.128 µM): 1.04
relative viability ([1]; first compound 1.28 µM): 1.14

H3255
relative viability (Midostaurin + AZD7762; first compound 0.01 µM): 0.857
relative viability (Midostaurin + AZD7762; first compound 0.03162 µM): 0.786
relative viability (Midostaurin + AZD7762; first compound 0.1 µM): 0.915
relative viability (Midostaurin + AZD7762; first compound 0.3162 µM): 0.89
relative viability (Midostaurin + Bortezomib; first compound 0.01 µM): 0.857
relative viability (Midostaurin + Bortezomib; first compound 0.03162 µM): 0.832
relative viability (Midostaurin + Bortezomib; first compound 0.1 µM): 0.731
relative viability (Midostaurin + Bortezomib; first compound 0.3162 µM): 0.789
relative viability (Midostaurin + Luminespib; first compound 0.01 µM): 1.14
relative viability (Midostaurin + Luminespib; first compound 0.03162 µM): 0.848
relative viability (Midostaurin + Luminespib; first compound 0.1 µM): 0.779
relative viability (Midostaurin + Luminespib; first compound 0.3162 µM): 0.848
relative viability (Midostaurin + Vorinostat; first compound 0.01 µM): 0.86
relative viability (Midostaurin + Vorinostat; first compound 0.03162 µM): 0.615
relative viability (Midostaurin + Vorinostat; first compound 0.1 µM): 0.765
relative viability (Midostaurin + Vorinostat; first compound 0.3162 µM): 0.744
relative viability ([1]; first compound 0.0128 µM): 0.879
relative viability ([1]; first compound 0.04048 µM): 0.87
relative viability ([1]; first compound 0.128 µM): 0.894
relative viability ([1]; first compound 1.28 µM): 0.633

201T
relative viability (Midostaurin + AZD7762; first compound 0.01 µM): 0.509
relative viability (Midostaurin + AZD7762; first compound 0.03162 µM): 0.687
relative viability (Midostaurin + AZD7762; first compound 0.1 µM): 0.595
relative viability (Midostaurin + AZD7762; first compound 0.3162 µM): 0.66
relative viability (Midostaurin + Bortezomib; first compound 0.01 µM): 1.08
relative viability (Midostaurin + Bortezomib; first compound 0.03162 µM): 1.04
relative viability (Midostaurin + Bortezomib; first compound 0.1 µM): 1.05
relative viability (Midostaurin + Bortezomib; first compound 0.3162 µM): 1.13
relative viability (Midostaurin + Luminespib; first compound 0.01 µM): 1.02
relative viability (Midostaurin + Luminespib; first compound 0.03162 µM): 0.98
relative viability (Midostaurin + Luminespib; first compound 0.1 µM): 0.997
relative viability (Midostaurin + Luminespib; first compound 0.3162 µM): 1.06
relative viability (Midostaurin + Vorinostat; first compound 0.01 µM): 0.991
relative viability (Midostaurin + Vorinostat; first compound 0.03162 µM): 0.871
relative viability (Midostaurin + Vorinostat; first compound 0.1 µM): 1.02
relative viability (Midostaurin + Vorinostat; first compound 0.3162 µM): 1.08
relative viability ([1]; first compound 0.0128 µM): 0.707
relative viability ([1]; first compound 0.04048 µM): 0.51
relative viability ([1]; first compound 0.128 µM): 0.584
relative viability ([1]; first compound 1.28 µM): 0.465

NCI-H2126
relative viability (Midostaurin + AZD7762; first compound 0.01 µM): 0.95
relative viability (Midostaurin + AZD7762; first compound 0.03162 µM): 0.926
relative viability (Midostaurin + AZD7762; first compound 0.1 µM): 0.995
relative viability (Midostaurin + AZD7762; first compound 0.3162 µM): 1.03
relative viability (Midostaurin + Bortezomib; first compound 0.01 µM): 1.07
relative viability (Midostaurin + Bortezomib; first compound 0.03162 µM): 1.08
relative viability (Midostaurin + Bortezomib; first compound 0.1 µM): 1.03
relative viability (Midostaurin + Bortezomib; first compound 0.3162 µM): 1.12
relative viability (Midostaurin + Luminespib; first compound 0.01 µM): 0.889
relative viability (Midostaurin + Luminespib; first compound 0.03162 µM): 0.679
relative viability (Midostaurin + Luminespib; first compound 0.1 µM): 0.847
relative viability (Midostaurin + Luminespib; first compound 0.3162 µM): 0.896
relative viability (Midostaurin + Vorinostat; first compound 0.01 µM): 0.812
relative viability (Midostaurin + Vorinostat; first compound 0.03162 µM): 0.631
relative viability (Midostaurin + Vorinostat; first compound 0.1 µM): 0.866
relative viability (Midostaurin + Vorinostat; first compound 0.3162 µM): 0.831
relative viability ([1]; first compound 0.0128 µM): 1.06
relative viability ([1]; first compound 0.04048 µM): 0.988
relative viability ([1]; first compound 0.128 µM): 0.976
relative viability ([1]; first compound 1.28 µM): 0.817

HOP-62
relative viability (Midostaurin + AZD7762; first compound 0.01 µM): 0.527
relative viability (Midostaurin + AZD7762; first compound 0.03162 µM): 0.568
relative viability (Midostaurin + AZD7762; first compound 0.1 µM): 0.727
relative viability (Midostaurin + AZD7762; first compound 0.3162 µM): 0.553
relative viability (Midostaurin + Bortezomib; first compound 0.01 µM): 0.887
relative viability (Midostaurin + Bortezomib; first compound 0.03162 µM): 0.728
relative viability (Midostaurin + Bortezomib; first compound 0.1 µM): 0.635
relative viability (Midostaurin + Bortezomib; first compound 0.3162 µM): 1.17
relative viability (Midostaurin + Luminespib; first compound 0.01 µM): 0.871
relative viability (Midostaurin + Luminespib; first compound 0.03162 µM): 0.875
relative viability (Midostaurin + Luminespib; first compound 0.1 µM): 0.934
relative viability (Midostaurin + Luminespib; first compound 0.3162 µM): 0.984
relative viability (Midostaurin + Vorinostat; first compound 0.01 µM): 0.545
relative viability (Midostaurin + Vorinostat; first compound 0.03162 µM): 0.607
relative viability (Midostaurin + Vorinostat; first compound 0.1 µM): 0.676
relative viability (Midostaurin + Vorinostat; first compound 0.3162 µM): 0.5
relative viability ([1]; first compound 0.0128 µM): 0.74
relative viability ([1]; first compound 0.04048 µM): 0.555
relative viability ([1]; first compound 0.128 µM): 0.661
relative viability ([1]; first compound 1.28 µM): 0.566

CAL-12T
relative viability (Midostaurin + AZD7762; first compound 0.01 µM): 0.608
relative viability (Midostaurin + AZD7762; first compound 0.03162 µM): 0.553
relative viability (Midostaurin + AZD7762; first compound 0.1 µM): 0.469
relative viability (Midostaurin + AZD7762; first compound 0.3162 µM): 0.452
relative viability (Midostaurin + Bortezomib; first compound 0.01 µM): 1
relative viability (Midostaurin + Bortezomib; first compound 0.03162 µM): 0.922
relative viability (Midostaurin + Bortezomib; first compound 0.1 µM): 0.88
relative viability (Midostaurin + Bortezomib; first compound 0.3162 µM): 0.796
relative viability (Midostaurin + Luminespib; first compound 0.01 µM): 0.174
relative viability (Midostaurin + Luminespib; first compound 0.03162 µM): 0.172
relative viability (Midostaurin + Luminespib; first compound 0.1 µM): 0.212
relative viability (Midostaurin + Luminespib; first compound 0.3162 µM): 0.174
relative viability (Midostaurin + Vorinostat; first compound 0.01 µM): 0.689
relative viability (Midostaurin + Vorinostat; first compound 0.03162 µM): 0.742
relative viability (Midostaurin + Vorinostat; first compound 0.1 µM): 0.734
relative viability (Midostaurin + Vorinostat; first compound 0.3162 µM): 0.457
relative viability ([1]; first compound 0.0128 µM): 0.675
relative viability ([1]; first compound 0.04048 µM): 0.7
relative viability ([1]; first compound 0.128 µM): 0.49
relative viability ([1]; first compound 1.28 µM): 0.581

NCI-H1755
relative viability (Midostaurin + AZD7762; first compound 0.01 µM): 0.492
relative viability (Midostaurin + AZD7762; first compound 0.03162 µM): 0.422
relative viability (Midostaurin + AZD7762; first compound 0.1 µM): 0.447
relative viability (Midostaurin + AZD7762; first compound 0.3162 µM): 0.402
relative viability (Midostaurin + Bortezomib; first compound 0.01 µM): 0.914
relative viability (Midostaurin + Bortezomib; first compound 0.03162 µM): 0.912
relative viability (Midostaurin + Bortezomib; first compound 0.1 µM): 0.887
relative viability (Midostaurin + Bortezomib; first compound 0.3162 µM): 0.755
relative viability (Midostaurin + Luminespib; first compound 0.01 µM): 0.418
relative viability (Midostaurin + Luminespib; first compound 0.03162 µM): 0.47
relative viability (Midostaurin + Luminespib; first compound 0.1 µM): 0.247
relative viability (Midostaurin + Luminespib; first compound 0.3162 µM): 0.443
relative viability (Midostaurin + Vorinostat; first compound 0.01 µM): 0.748
relative viability (Midostaurin + Vorinostat; first compound 0.03162 µM): 0.809
relative viability (Midostaurin + Vorinostat; first compound 0.1 µM): 0.715
relative viability (Midostaurin + Vorinostat; first compound 0.3162 µM): 0.783
relative viability ([1]; first compound 0.0128 µM): 0.501
relative viability ([1]; first compound 0.04048 µM): 0.344
relative viability ([1]; first compound 0.128 µM): 0.371
relative viability ([1]; first compound 1.28 µM): 0.417
